Reference: patent US20220401564A1 (DANA-FARBER CANCER INSTITUTE, INC., priority 2019, published 2022)
Entries after “also recorded” stand apart in the source; their conditions may differ.

Molecular target: T1, HDAC6 (Homo sapiens, UniProt Q9UBN7)
T1 sequence (Q9UBN7 1-1215): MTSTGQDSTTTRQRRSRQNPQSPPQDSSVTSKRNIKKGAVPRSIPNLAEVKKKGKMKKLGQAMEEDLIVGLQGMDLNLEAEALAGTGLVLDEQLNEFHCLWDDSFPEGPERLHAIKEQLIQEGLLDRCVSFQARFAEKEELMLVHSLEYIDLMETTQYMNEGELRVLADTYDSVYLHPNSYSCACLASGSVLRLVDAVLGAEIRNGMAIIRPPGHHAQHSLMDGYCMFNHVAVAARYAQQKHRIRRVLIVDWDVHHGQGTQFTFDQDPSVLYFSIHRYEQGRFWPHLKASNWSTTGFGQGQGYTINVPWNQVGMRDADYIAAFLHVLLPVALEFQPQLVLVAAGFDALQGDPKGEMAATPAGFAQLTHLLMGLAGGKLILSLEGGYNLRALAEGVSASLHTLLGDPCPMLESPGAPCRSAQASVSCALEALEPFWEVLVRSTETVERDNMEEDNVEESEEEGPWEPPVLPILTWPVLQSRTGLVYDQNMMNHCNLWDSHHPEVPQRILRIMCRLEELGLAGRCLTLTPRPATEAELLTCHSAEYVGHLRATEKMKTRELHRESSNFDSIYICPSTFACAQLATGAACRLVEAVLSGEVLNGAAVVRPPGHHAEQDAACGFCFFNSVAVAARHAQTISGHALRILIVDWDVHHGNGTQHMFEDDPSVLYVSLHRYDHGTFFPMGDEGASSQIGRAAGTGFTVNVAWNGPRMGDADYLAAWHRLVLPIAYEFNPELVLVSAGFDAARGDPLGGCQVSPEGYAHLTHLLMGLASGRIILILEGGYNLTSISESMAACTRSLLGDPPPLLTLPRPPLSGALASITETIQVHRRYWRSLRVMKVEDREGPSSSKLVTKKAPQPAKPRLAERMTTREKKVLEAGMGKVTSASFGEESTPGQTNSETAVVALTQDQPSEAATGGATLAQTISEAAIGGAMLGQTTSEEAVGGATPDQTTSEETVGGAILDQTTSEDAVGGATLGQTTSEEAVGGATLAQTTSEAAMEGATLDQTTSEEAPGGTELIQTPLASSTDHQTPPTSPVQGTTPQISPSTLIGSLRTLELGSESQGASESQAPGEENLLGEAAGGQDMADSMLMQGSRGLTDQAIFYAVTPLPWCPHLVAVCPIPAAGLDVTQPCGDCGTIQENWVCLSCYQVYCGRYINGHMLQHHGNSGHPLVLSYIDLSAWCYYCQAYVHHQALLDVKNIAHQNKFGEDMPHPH
Experiment: Change in cellular protein abundance (TMT proteomics) in Kelly cells
Format: cell-based
Parameters: relative change in relative protein abundance with treatment of Kelly cells; endogenous in cells; host or cells: Kelly cells
Details: FIG. 3A

**Q.** `Cc1ncsc1-c1ccc(CNC(=O)[C@@H]2C[C@@H](O)CN2C(=O)[C@@H](NC(=O)C2(F)CC2)C(C)(C)C)c(OCCCCCN(CCc2c[nH]c3ccccc23)Cc2ccc(/C=C/C(=O)NO)cc2)c1` [Compound 7, (2S,4R)—N-(2-((5-((2-(1H-indol-3-yl)ethyl)(4-((E)-3-(hydroxyamino)-3-oxoprop-1-en-1-yl)benzyl)amino)pentyl)oxy)-4-(4-methylthiazol-5-yl)benzyl)-1-((S)-2-(1-fluorocyclopropane-1-carboxamido)-3,3-dimethylbutanoyl)-4-hydroxypyrrolidine-2-carboxamide] was tested. Which “HDAC6 protein levels, relative protein abundance compared to DMSO control” value did it give?
**A.** promote degradation; also recorded: significant and selective reduction
